“Also recorded” adds a separate entry of the source.
Assays:
[1] = test system: BAX mRNA; experiment: drug-induced BAX mRNA expression in whole blood of healthy adults; assay type: cell-based, human; conditions: for Bax induction: 20 μM BLM or 100 μM VP-16, 4 hours at 37° C., ΔCt smaller than p21, not induced in 1 or 2 individuals (FIG. 6); for BAX responses compared with p21 and PUMA: 100 μM VP-16 or 20 μM BLM, 2 hours at 37° C., p<0.01 (FIG. 14)
From the text: Blood was obtained from healthy adults and from two leukemic non-Hodgkin's malignant lymphoma patients. U937, KG-1, and Jurkat cells were obtained from American Type Culture Collection (ATCC, Manassas, Va.), and maintained in RPMI 1640 supplemented with 10% fetal calf serum. Of these, U937 cells are a human histiocytic lymphoma cell line, KG-1 cells are a human bone marrow myelogenous leukemia cell line, and Jurkat cells are a human T-cell lymphoblast-like, leukemia derived cell line. […] For human experiments, blood aliquots were stimulated with various anti-cancer drugs at 37° C. for 2 hours, then both p21 and BAX mRNA were measured. The anti-cancer drugs used in this study were clinical drugs, and the concentration of each drug was adjusted to typical blood levels 3-6 hours after intravenous administration.
(§1) The mRNA and cDNA were prepared from whole blood. In brief, home-made 96-well filterplates were placed over collection plates, and 150 μl 5 mM Tris, pH 7.4, was applied. Following centrifugation at 120×g for 1 min at 4° C., 50 μl of blood samples were applied to each well and immediately centrifuged at 120×g for 2 min at 4° C., followed by washing of each well with 300 μl PBS once with centrifugation at 2000×g for 5 min at 4° C. Then, 60 μl stock lysis buffer, containing for example 0.5% N-Lauroylsarcosine, 4×SSC, 10 mM Tris HCl, pH 7.4, 1 mM EDTA, 0.1% IGEPAL CA-630, and 1.791 M guanidine thiocyanate, supplemented with 1% 2-mercaptoethanol (Bio Rad, Hercules, Calif., USA), 0.5 mg/ml proteinase K (Pierce, Rockford, Ill., USA), 0.1 mg/ml salmon sperm DNA (5 Prime Eppendorf/Brinkmann, Westbury, N.Y., USA), 0.1 mg/ml E. coli tRNA (Sigma), a cocktail of 10 mM each of the specific reverse primers shown in Table 1, and standard RNA34 oligonucleotides, were applied to the filterplates, followed by incubation at 37° C. for 10 min. The filterplates were then placed over oligo(dT)-immobilized microplates (GenePlate, RNAture), and centrifuged at 2000×g for 5 min at 4° C. Following overnight storage at 4° C., the microplates were washed with 100 μl plain lysis buffer 3 times, followed by 150 μl of wash buffer (0.5 M NaCl, 10 mM Tris, pH 7.4, 1 mM EDTA) 3 times at 4° C. The cDNA was directly synthesized in each well by adding 30 μl buffer containing 1× RT-butter, 1.25 mM each of dNTP, 4 units rRNasin, and 80 units of MMLV reverse transcriptase (Promega) (without primers), and incubation at 37° C. for 2 hours. The specific primer-primed cDNA existed in solution, and oligo(dT)-primed cDNA stayed immobilized in the microplate. […] The Ct was determined by analytical software (SDS, ABI). […]

[2] = test system: p21 mRNA, U937 cells; experiment: etoposide-induced p21 mRNA expression in cultured U937 cells; assay type: cell-based, human; conditions: 10 μM etoposide, 2 hours at 37° C. (FIG. 1)
Experimental: (§2) Blood was obtained from healthy adults and from two leukemic non-Hodgkin's malignant lymphoma patients. […] For human experiments, blood aliquots were stimulated with various anti-cancer drugs at 37° C. for 2 hours, then both p21 and BAX mRNA were measured. The anti-cancer drugs used in this study were clinical drugs, and the concentration of each drug was adjusted to typical blood levels 3-6 hours after intravenous administration.
(§3) The mRNA and cDNA were prepared from whole blood. In brief, home-made 96-well filterplates were placed over collection plates, and 150 μl 5 mM Tris, pH 7.4, was applied. Following centrifugation at 120×g for 1 min at 4° C., 50 μl of blood samples were applied to each well and immediately centrifuged at 120×g for 2 min at 4° C., followed by washing of each well with 300 μl PBS once with centrifugation at 2000×g for 5 min at 4° C. […] The Ct was determined by analytical software (SDS, ABI).

[3] = test system: p21 mRNA, Jurkat cells; experiment: etoposide-induced p21 mRNA expression in cultured Jurkat cells; assay type: cell-based, human; conditions: even when 100 μM was used (FIG. 1)
Experimental: as §2, §3

[4] = test system: p21 mRNA, U937 cells mixed with blood; experiment: etoposide-induced p21 mRNA expression from U937 cells mixed in healthy adult blood; assay type: cell-based, human; conditions: 10 μM etoposide-treated U937, 1,250 U937 cells added to 1 μL blood, vs DMSO-treated U937 (FIG. 2)
Experimental: as §1, with “C.” for “C. Following overnight storage at 4° C., the microplates were washed with 100 μl plain lysis buffer 3 times, followed by 150 μl of wash buffer (0.5 M NaCl, 10 mM Tris, pH 7.4, 1 mM EDTA) 3 times at 4° C. The cDNA was directly synthesized in each well by adding 30 μl buffer containing 1× RT-butter, 1.25 mM each of dNTP, 4 units rRNasin, and 80 units of MMLV reverse transcriptase (Promega) (without primers), and incubation at 37° C. for 2 hours. The specific primer-primed cDNA existed in solution, and oligo(dT)-primed cDNA stayed immobilized in the microplate.”

[5] = test system: BAX mRNA; experiment: drug-induced BAX mRNA expression in whole blood of leukemia and lymphoma patients; assay type: cell-based, human; conditions: leukemic lymphoma patient 2, 2 hours at 37° C., drug concentrations (FIG. 3)
Experimental: The mRNA and cDNA were prepared from whole blood. In brief, home-made 96-well filterplates were placed over collection plates, and 150 μl 5 mM Tris, pH 7.4, was applied. Following centrifugation at 120×g for 1 min at 4° C., 50 μl of blood samples were applied to each well and immediately centrifuged at 120×g for 2 min at 4° C., followed by washing of each well with 300 μl PBS once with centrifugation at 2000×g for 5 min at 4° C. Then, 60 μl stock lysis buffer, containing for example 0.5% N-Lauroylsarcosine, 4×SSC, 10 mM Tris HCl, pH 7.4, 1 mM EDTA, 0.1% IGEPAL CA-630, and 1.791 M guanidine thiocyanate, supplemented with 1% 2-mercaptoethanol (Bio Rad, Hercules, Calif., USA), 0.5 mg/ml proteinase K (Pierce, Rockford, Ill., USA), 0.1 mg/ml salmon sperm DNA (5 Prime Eppendorf/Brinkmann, Westbury, N.Y., USA), 0.1 mg/ml E. coli tRNA (Sigma), a cocktail of 10 mM each of the specific reverse primers shown in Table 1, and standard RNA34 oligonucleotides, were applied to the filterplates, followed by incubation at 37° C. for 10 min. The filterplates were then placed over oligo(dT)-immobilized microplates (GenePlate, RNAture), and centrifuged at 2000×g for 5 min at 4° C. Following overnight storage at 4° C., the microplates were washed with 100 μl plain lysis buffer 3 times, followed by 150 μl of wash buffer (0.5 M NaCl, 10 mM Tris, pH 7.4, 1 mM EDTA) 3 times at 4° C. The cDNA was directly synthesized in each well by adding 30 μl buffer containing 1× RT-butter, 1.25 mM each of dNTP, 4 units rRNasin, and 80 units of MMLV reverse transcriptase (Promega) (without primers), and incubation at 37° C. for 2 hours. The specific primer-primed cDNA existed in solution, and oligo(dT)-primed cDNA stayed immobilized in the microplate. For TaqMan PCR (FIGS. 1, 3, 4), the resultant 4 μl cDNA solution was directly transferred to 384-well PCR plates, to which 5 μl of TaqMan universal master mix (ABI) and 1 μl oligonucleotide cocktail (15 μM each of forward and reverse primer, and 3-6 μM TaqMan probe) were applied, and PCR was conducted in PRISM 7900HT (ABI), with one cycle of 95° C. for 10 min followed by 45 cycles of 95° C. for 30 sec, 55° C. for 30 sec, and 60° C. for 1 min. […] The Ct was determined by analytical software (SDS, ABI).

[6] = test system: PUMA mRNA; experiment: drug-induced PUMA mRNA expression in whole blood of leukemia and lymphoma patients; assay type: cell-based, human; conditions: 2 hours at 37° C.
[7] = test system: leukemic non-Hodgkin's malignant lymphoma patient; experiment: clinical course of patient 2 (leukemic non-Hodgkin's lymphoma); assay type: in vivo, human; conditions: patient 2 with continued thrombocytopenia (FIG. 4)
[8] = test system: human whole blood; experiment: DNA fragmentation (apoptosis) in whole blood by agarose gel electrophoresis; assay type: cell-based; conditions: 1 day of incubation, 100 μM VP-16, 20 μM BLM (FIG. 5 inset)
Experimental: Using a commercial kit (Puregene, Gentra, Minneapolis, Minn.), genomic DNA was purified from 300 μl each of whole blood with or without treatments. DNA was then analyzed in 3.5% agarose (3:1 NuSieve:agarose, FMC, Rockland, Me.) gel electrophoresis, stained with 0.5 μg/ml ethidium bromide, and photographic images were recorded by AlphaImager (Alpha Innotech, San Leandro, Calif.).
To mimic physiological conditions, whole blood was used, without isolating mononuclear cells. […] After 1 day of incubation, genomic DNA was extracted, and DNA fragmentation was analyzed by agarose gel electrophoresis using ethidium bromide staining.
Genomic DNA was purified from 300 μl each of whole blood with or without treatments, using a commercial kit (Puregene, Gentra, Minneapolis, Minn.). DNA was then analyzed in 3.5% agarose (3:1 NuSieve:agarose, FMC, Rockland, Me.) gel electrophoresis, stained with 0.5 μg/ml ethidium bromide, and photographic images were recorded by Alpha-Iimager (Alpha Innotech, San Leandro, Calif.).

## COc1cc([C@@H]2c3cc4c(cc3[C@@H](O[C@@H]3O[C@@H]5CO[C@@H](C)O[C@H]5[C@H](O)[C@H]3O)[C@H]3COC(=O)[C@H]23)OCO4)cc(OC)c1O [VP-16, etoposide]
[1]
  Bax induction: induced
  BAX responses compared with p21 and PUMA: significantly less than those of p21 and PUMA
[2]
  p21 expression: slight but significant p21 expression
[3]
  drug sensitivity (p21 mRNA expression): resistant
[4]
  p21 mRNA expression: significant
[5]
  BAX mRNA induction: induced
[6]; AML patient, drug concentrations of b94 (FIG. 8B)
  PUMA induction: huge induction
[6]; NHL patient, drug concentrations (FIG. 8C)
  PUMA response: strong PUMA response
[7]
  platelet count: increased substantially

## bleomycin [BLM]
[1]
  Bax induction: induced
  BAX responses compared with p21 and PUMA: significantly less than those of p21 and PUMA
[8]
  fragmentation of DNA: confirmed; also recorded: fragmentation of DNA was observed
